According to the AptaBench aptamer set (doi:10.1093/nar/gkaf219):

Key:
Settings in all cases: 10 mM Tris-HCl, pH 7.4
[1] = test system: DNA aptamer or structured DNA CTTACGACTAGTTCTGAGGAATCAACGTCGGTGTAGTTGTCGTAAG
[2] = test system: DNA aptamer or structured DNA CTTACGACGGGTTCAGAGGGTCAACGGTGGTGTTGTCGTCGTAAG
[3] = test system: DNA aptamer or structured DNA GGGACGACCGTCCGAGTTTTAGGAGTGGTTGCATTGCGCTGGGAAGAGGTCGTCCC
[4] = test system: DNA aptamer or structured DNA TTCAAATCTGCGGCGACTAATTCTTAGTGGTGGTTGCAATGCGCTGGGATGAGTCTAGATTTGAA
[5] = test system: DNA aptamer or structured DNA GGGACGACCGGCTGTCTGGATGCATTGCGCCGGGAACTCGGACGGATGGTCGTCCC
[6] = test system: DNA aptamer or structured DNA GGGACGACAGGGATTCGCGGATTCGGAGAAAAGGGCTCGTACGTCGTCCC
[7] = test system: DNA aptamer or structured DNA GGGACGACTAGCGGTGTTGGTCGGAGTGGTGGAATCTAGTCGTCCC
[8] = test system: DNA aptamer or structured DNA GGGACGACTAGTGCCTTCGCGTTGTACGGGAATCCGGTTCTGTCGTCCC
[9] = test system: DNA aptamer or structured DNA GGGACGACTAGTGCCTTCGCGTTGTTCAGGAATCCGGTTCTGTCGTCCC
[10] = test system: DNA aptamer or structured DNA GGGACGACTACAGGTCGTGCGTCGCTCGAGTTGGTGAGTGTGTCGTCCC
[11] = test system: DNA aptamer or structured DNA GGGACGACTAGTGCCTTCGCGTTGTTCGGGAATCCGGTTCTGTCGTCCC
[12] = test system: DNA aptamer or structured DNA CTTACGACGACCTATTGGGGGTAGTTATAGTTGGGTGAGTCGTAAG
[13] = test system: DNA aptamer or structured DNA GGGACGACTAGTGCCTTCGCGCTGTGCGGGAATCCGGTTCTGTCGTCCC
[14] = test system: DNA aptamer or structured DNA GGGACGACGGGGATTCGCGGATTCATGGAAAAGGGCTCGTCTGTCGTCCC
[15] = test system: DNA aptamer or structured DNA GGGACGACGGAGGTTTAGGGTTTAGGTAGTGGGTTGAAGTCGTCCC
[16] = test system: DNA aptamer or structured DNA GGGACGACAGAATGGCAGCATTGGTGAGTTGTTTGCCTGTCGTCCC
[17] = test system: DNA aptamer or structured DNA GGGACGACGGCACGAGGTTATTCGTTGGTTGCACTGCGCTGGGAGGCAGTCGTCCC
[18] = test system: DNA aptamer or structured DNA GGGACGACAGCTTGGTTTGGTCGGGGTAGGGTTCGGATGTCGTCCC
[19] = test system: DNA aptamer or structured DNA GGGACGACTAATGGGAGCATTGGTCCACGCAGTGTGCAGTCGTCCC
[20] = test system: DNA aptamer or structured DNA CTTACGACGACCTATTGGGGGGTAGTTATAGTTGGGTGAGTCGTAAG
[21] = test system: DNA aptamer or structured DNA GGGACGACAAAATGGCAGCATTGGTGACGGAGTTGCTTGTCGTCCC
[22] = test system: DNA aptamer or structured DNA CTTACGACCATGGGTGTTTGCACTAAGTCCGGTTCTTGGTCGTAAG
[23] = test system: DNA aptamer or structured DNA CTTACGACAGTAACGGTGGGTATATGGGATTTATGTTCGTCGTAAG
[24] = test system: DNA aptamer or structured DNA GGGACGACGGGAAGGTTGGCAGCGCATCGTCGGGTCACGTCGTCCC
[25] = test system: DNA aptamer or structured DNA CTTACGACCTAAGGGTCTGGAGTGGTTGTTATACGCTGGTCGTAAG
[26] = test system: DNA aptamer or structured DNA GGGACGACGAGGGCACGTCTGTGTGCAGGGTTTCGCGCGTCGTCCC
[27] = test system: DNA aptamer or structured DNA GGGACGACGGGGATTCGGTTCGTCATTTGGCAGTGCCTCGTCTGTCGTCCC
[28] = test system: DNA aptamer or structured DNA GGGACGACGGCACGAGGTTATTCGTTGGTTGCACTGCGCTGGGAGGAAGTCGTCCC
[29] = test system: DNA aptamer or structured DNA GGGACGACGGCACGGGGTTATTCGTTGGTTGCACTGCGCTGGGAGGCAGTCGTCCC
[30] = test system: DNA aptamer or structured DNA GGGACGACCGGACTTGGGTGGGTGCTGGGGCTTGGGCGGTCGTCCC
[31] = test system: DNA aptamer or structured DNA CTTACGACCAGGCCTACGGAAGCAGCGTCAGCGGGGGGGTCGTAAG
[32] = test system: DNA aptamer or structured DNA GGGACGACCCGTAGGGGTACACGCTCTATAGGGGCTGGGTCGTCCC
[33] = test system: DNA aptamer or structured DNA GGGACGACGGCTTAGCAAAGCTAGTAGGGGTCCACGCTGTCGTCCC
[34] = test system: DNA aptamer or structured DNA GGGACGACAAGTACCAAGGGTAGCTCTGCGTTGTTCGAGGTCGTCCC
[35] = test system: DNA aptamer or structured DNA GGGACGACTGGCGCCGGATTCCCTAAGGTACACGGACTGTCGTCCC
Throughout, for binding call: call rule not given here.

Row | Structure (SMILES) | binding call [1] | binding call [2] | binding call [5] | binding call [7] | binding call [9] | binding call [11] | binding call [12] | binding call [13] | binding call [15] | binding call [16] | binding call [18] | binding call [19] | binding call [20] | binding call [22] | binding call [23] | binding call [25] | binding call [30] | binding call [32] | binding call [34] | other results
1 | NCCc1c[nH]c2ccc(O)cc12 | no binding | no binding | no binding | no binding | no binding | binds | no binding | binds | – | – | – | – | – | – | – | – | – | – | – | binding call [3]: binds; binding call [4]: no binding; binding call [6]: no binding; binding call [8]: no binding; binding call [10]: no binding; binding call [14]: no binding
2 | CCC(=O)C(CC(C)N(C)C)(c1ccccc1)c1ccccc1 (stereo unspecified) | – | – | binds | no binding | – | no binding | – | – | binds | no binding | binds | no binding | no binding | – | – | – | – | – | – | binding call [17]: no binding; binding call [21]: no binding
3 | CCN(CC)CC(=O)Nc1c(C)cccc1C | – | – | – | no binding | no binding | – | – | no binding | no binding | – | – | no binding | no binding | no binding | no binding | – | – | – | – | binding call [21]: no binding; binding call [24]: no binding
4 | COC(=O)[C@@H]1C2CCC(C[C@@H]1OC(=O)c1ccccc1)N2C (stereo partly specified) | – | – | – | binds | – | – | – | no binding | no binding | – | binds | no binding | – | no binding | – | – | – | – | – | Kd [25]: 0.218 µM; Kd [1]: 0.033 µM; Kd [2]: 0.049 µM; binding call [26]: no binding; Kd [23]: 0.282 µM; Kd [12]: 0.353 µM; Kd [20]: 0.102 µM
5 | NCCc1ccc(O)c(O)c1 | no binding | no binding | binds | – | no binding | binds | no binding | no binding | – | – | – | – | no binding | – | no binding | no binding | – | – | – | binding call [3]: no binding; binding call [6]: no binding; binding call [27]: no binding; binding call [8]: no binding; binding call [10]: binds; binding call [17]: binds; binding call [28]: no binding; binding call [29]: no binding; binding call [14]: no binding
6 | CN[C@@H](C)Cc1ccccc1 | – | – | – | – | – | – | no binding | – | no binding | no binding | no binding | no binding | – | no binding | – | – | no binding | no binding | – | Kd [3]: 4.9 µM; Kd [4]: 5.67 µM; Kd [5]: 8.9 µM; binding call [26]: no binding; binding call [31]: binds; Kd [17]: 7 µM; Kd [28]: 3.3 µM; Kd [29]: 5.3 µM; Kd [11]: 5.1 µM; Kd [13]: 7.5 µM
7 | CC(C)Cc1ccc(C(C)C(=O)O)cc1 (stereo unspecified) | – | – | – | – | – | – | no binding | – | – | – | – | – | no binding | – | no binding | no binding | – | – | – | –
8 | CCOC(=O)c1ccc(N)cc1 | – | – | – | – | – | – | no binding | – | – | no binding | – | – | – | no binding | no binding | – | no binding | – | no binding | binding call [33]: no binding; binding call [31]: no binding
9 | c1ccc([C@H]2CN3CCSC3=N2)cc1 | no binding | no binding | – | – | – | – | no binding | – | – | – | – | – | – | – | no binding | no binding | – | no binding | no binding | binding call [33]: no binding; binding call [35]: no binding
10 | Cn1c(=O)c2c(ncn2C)n(C)c1=O | – | – | – | – | – | – | – | – | – | – | – | – | no binding | – | binds | – | binds | binds | no binding | binding call [4]: no binding
